Measured values reported in PMC3466466, “Taltirelin is a superagonist at the human thyrotropin-releasing hormone receptor” (Frontiers in Endocrinology, 2012).

Tests used:
[1] = target: T1, TRH-R (human TRH receptor) (Homo sapiens, UniProt P34981); assay: intracellular Ca2+ release, calcium […] dye, FLIPR; format: cell-based; conditions: read-out: EC50 for Ca signaling
T1 construct: gene TRHR; full-length human cDNA subcloned into pcDNA3.1(+)/hygromycin; stably expressed in HEK-EM 293 cells, 16,000 receptors/cell
T1 sequence (P34981 1-398): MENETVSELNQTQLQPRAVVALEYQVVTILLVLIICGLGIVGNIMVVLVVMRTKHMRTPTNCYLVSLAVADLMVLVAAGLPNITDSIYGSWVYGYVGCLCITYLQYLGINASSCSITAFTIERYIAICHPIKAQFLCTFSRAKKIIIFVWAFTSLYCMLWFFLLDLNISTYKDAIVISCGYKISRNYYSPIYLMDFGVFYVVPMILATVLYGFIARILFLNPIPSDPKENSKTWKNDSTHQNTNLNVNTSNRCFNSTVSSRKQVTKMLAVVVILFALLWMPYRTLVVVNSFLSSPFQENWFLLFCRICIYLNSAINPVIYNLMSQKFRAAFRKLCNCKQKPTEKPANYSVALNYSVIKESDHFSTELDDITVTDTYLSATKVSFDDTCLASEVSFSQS

[2] = target: T1, TRH-R (human TRH receptor); assay: [3H]MeTRH competition binding, intact HEK-EM […] cells; format: cell-based

CN1C(=O)C[C@@H](C(=O)N[C@@H](Cc2c[nH]cn2)C(=O)N2CCC[C@H]2C(N)=O)NC1=O [TAL, N-[[(4S)-Hexahydro-1-methyl-2,6-dioxo-4-pyrimidinyl]carbonyl]-L-histidyl-L-prolinamide]
EC50 [1]: 0.036 µM | IC50 [2]: 0.91 µM
